From patent US9040516B2, “Uracil derivative and use thereof for medical purposes” (SUMITOMO DAINIPPON PHARMA CO., LTD., priority 2011, dated 2015)

Experiments:
[1] = target: T1, human neutrophil elastase (Homo sapiens, UniProt P08246); test: Inhibitory action 2 against human neutrophil elastase (Test Example 2; fluorogenic substrate MeOSuc-AAPV-AMC, buffer with 400 mM NaCl, 0.2 mg/ml BSA); assay type: biochemical; conditions: 37° C., read-out: IC50 value (compound concentration required for 50% inhibition of human neutrophil elastase)
T1 construct: purchased Elastin Products Company
T1 sequence (P08246 30-267): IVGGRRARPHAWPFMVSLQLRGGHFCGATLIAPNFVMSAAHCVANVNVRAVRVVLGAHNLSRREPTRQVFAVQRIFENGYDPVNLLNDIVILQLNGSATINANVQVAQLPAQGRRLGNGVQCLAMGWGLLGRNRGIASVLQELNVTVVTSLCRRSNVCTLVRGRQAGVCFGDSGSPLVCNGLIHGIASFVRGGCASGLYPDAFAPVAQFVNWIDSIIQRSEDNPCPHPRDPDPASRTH
Procedure, shortened: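 HNE (0.4 unit/ml in buffer) preincubated 5 min at 37° C with compound in 200 mM HEPES pH 7.5, 400 mM NaCl, 0.2 mg/ml BSA; reaction started with MeOSuc-AAPV-AMC (0.5 mM stock) and run 5 min at 37° C. AMC fluorescence (ex 380, em 460 nm) gave percent inhibition.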

[2] = target: T1, human neutrophil elastase; test: Inhibitory action against human neutrophil elastase (Test Example 1; fluorogenic substrate MeOSuc-AAPV-AMC, buffer with 2M NaCl, 0.002% Brij-35); assay type: biochemical; conditions: 37° C., read-out: IC50 value (compound concentration required for 50% inhibition of human neutrophil elastase)
Procedure, shortened: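 Enzyme (0.4 unit/ml in stock buffer: 200 mM HEPES pH 7.5, 2M NaCl, 0.002% Brij-35) preincubated with compound 5 min at 37 °C. Reaction started with MeOSuc-AAPV-AMC (0.5 mM stock) and run 5 min at 37 °C; AMC fluorescence (ex 380, em 460 nm) gave inhibition ratio.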

Row | IC50 [1] | melting point | IC50 [2] | Compound
1 | 12.6 nM | 227 °C |  | Cc1c(-c2c(C(=O)N3CCCC3)cnn2-c2ccc(C#N)cc2)c(=O)n(C)c(=O)n1-c1cccc(C(F)(F)F)c1 [Example 162]
2 | 14.5 nM | 263 °C |  | Cc1c(-c2c(C(N)=O)cnn2-c2ccc(C#N)cc2)c(=O)n(C)c(=O)n1-c1cccc(C(F)(F)F)c1 [Example 148]
3 | 11 nM | 226 °C |  | Cc1c(-c2ccnn2-c2ccc(C#N)cc2)c(=O)n(C(C)C(N)=O)c(=O)n1-c1cccc(C(F)(F)F)c1 (centres unmarked) [Example 377]
4 | 64.2 nM |  | 191 nM | Cc1cccc(-n2c(C)c(-c3ccnn3-c3ccc(C#N)cc3)c(=O)n(C)c2=O)c1 [Example 37, 4-(5-(3,6-dimethyl-2,4-dioxo-1-m-tolyl-1,2,3,4-tetrahydropyrimidin-5-yl)-1H-pyrazol-1-yl)benzonitrile]
